{"source": "patent US20120190751A1", "about": "“COMPOUNDS FOR TREATMENTS OF INFLAMMATION” (ANA-MAR AB, priority 2009, published 2012)", "key": {"5-HT2C receptor [1]": {"biological_target": "T1, 5-HT2C receptor (Homo sapiens, UniProt P28335)", "T1 sequence (P28335 33-458)": "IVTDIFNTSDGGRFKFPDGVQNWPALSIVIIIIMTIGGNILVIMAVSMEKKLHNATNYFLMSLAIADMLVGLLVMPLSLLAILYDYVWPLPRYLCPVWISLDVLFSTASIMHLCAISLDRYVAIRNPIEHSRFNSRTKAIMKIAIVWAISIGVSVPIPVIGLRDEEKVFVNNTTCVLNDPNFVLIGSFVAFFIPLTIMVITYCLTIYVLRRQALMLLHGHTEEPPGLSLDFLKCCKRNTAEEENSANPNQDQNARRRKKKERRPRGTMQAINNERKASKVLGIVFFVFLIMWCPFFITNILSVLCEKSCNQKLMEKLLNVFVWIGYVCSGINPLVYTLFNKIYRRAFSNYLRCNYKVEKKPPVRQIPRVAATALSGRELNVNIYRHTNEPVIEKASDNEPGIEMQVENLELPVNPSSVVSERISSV", "test": "5-HT2C GTPγS binding assay (functionality)", "assay_type": "biochemical", "settings": "FIG. 2, read-out: IC50, antagonistic effect on 5-HT2C", "protocol": "FIG. 2. Antagonistic effect of N-(2-chloro-3,4-dimethoxybenzylideneamino)guanidine on 5-HT2B and 5-HT2C receptors. The functionality of the compound was evaluated with the 5-HT2B tissue assay and the 5-HT2C GTPγS binding assay methods.\nN-(2-chloro-3,4-dimethoxybenzylideneamino)guanidine was further tested for functionality against 5-HT2B (Cohen et al. (1987), J. Pharmacol. Exp. Ther. 243:264-269), 5-HT2C (Adlersber M, et al. (2000), J. Neurosci. Res. 61(6):674-685; Cussac D. et al. (2002), Mol. Pharmacol. 62(3):578-589) and 5-HT4 (Reeves et al. (1991), Br. J. Pharmacol. 103:1067-1072)."}, "5-HT5A receptor": {"biological_target": "5-HT5A receptor (Homo sapiens, UniProt P47898)", "sequence (P47898 whole entry)": "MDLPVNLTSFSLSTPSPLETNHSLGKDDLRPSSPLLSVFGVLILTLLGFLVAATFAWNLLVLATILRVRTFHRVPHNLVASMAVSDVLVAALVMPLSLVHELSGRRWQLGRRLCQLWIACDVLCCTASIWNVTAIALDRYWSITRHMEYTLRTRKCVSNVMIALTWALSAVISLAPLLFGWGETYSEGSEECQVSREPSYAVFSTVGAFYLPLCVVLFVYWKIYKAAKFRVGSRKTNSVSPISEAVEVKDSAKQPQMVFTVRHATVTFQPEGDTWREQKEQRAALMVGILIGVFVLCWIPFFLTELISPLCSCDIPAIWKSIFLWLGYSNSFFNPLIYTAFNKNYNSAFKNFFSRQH", "test": "Radio-ligand binding assay 5-HT5A", "settings": "10 μM compound; [3H] LSD 1 nM; human rec. HEK293 cells", "protocol": "(§1) Determination of binding affinities for various 5-HT receptors was performed by radio-ligand binding assays. Briefly, tissue or cells expressing the receptor of interest were suspended in incubation buffer and radio-ligands and 10 μM N-(2-chloro-3,4-dimethoxybenzylidene-amino)guanidine were added. After incubation, separation of bound and free radio-ligand was done by multiple washings with buffer.\n(§2) The results were presented as the percent inhibition of specific binding. The IC50 values were determined by a non-linear least square regression analysis using MathIQ™ (ID Business Solution Ltd., UK). The inhibition constants (Ki) were calculated using the equation of Cheng and Prusoff (Cheng Y, Prusoff W H, Biochem. Pharmacol. 22:3099-3108, 1973) using the observed IC50 of the tested compound, the concentration of radioligand employed in the assay and the historical values for the KD of the ligand."}, "5-HT1A receptor": {"biological_target": "T2, 5-HT1A receptor (Homo sapiens, UniProt P08908)", "T2 sequence (P08908 1-422)": "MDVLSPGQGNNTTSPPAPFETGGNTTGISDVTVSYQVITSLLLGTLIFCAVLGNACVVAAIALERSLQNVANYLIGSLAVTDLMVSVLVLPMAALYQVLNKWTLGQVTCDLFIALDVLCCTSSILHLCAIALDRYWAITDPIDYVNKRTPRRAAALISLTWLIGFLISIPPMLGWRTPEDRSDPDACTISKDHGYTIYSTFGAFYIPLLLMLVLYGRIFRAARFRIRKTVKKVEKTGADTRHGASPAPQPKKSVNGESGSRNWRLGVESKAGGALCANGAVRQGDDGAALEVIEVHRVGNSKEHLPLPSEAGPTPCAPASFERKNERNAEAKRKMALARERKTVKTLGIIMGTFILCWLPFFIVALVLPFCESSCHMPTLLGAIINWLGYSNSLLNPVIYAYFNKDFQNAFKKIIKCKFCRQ", "test": "Radio-ligand binding assay 5-HT1A", "settings": "10 μM compound; [3H]-8-OH-DPAT 0.5 nM; human rec. HEK293 cells", "protocol": "as §1, §2"}, "5-HT1D receptor": {"biological_target": "5-HT1D receptor (Homo sapiens, UniProt P28221)", "sequence (P28221 whole entry)": "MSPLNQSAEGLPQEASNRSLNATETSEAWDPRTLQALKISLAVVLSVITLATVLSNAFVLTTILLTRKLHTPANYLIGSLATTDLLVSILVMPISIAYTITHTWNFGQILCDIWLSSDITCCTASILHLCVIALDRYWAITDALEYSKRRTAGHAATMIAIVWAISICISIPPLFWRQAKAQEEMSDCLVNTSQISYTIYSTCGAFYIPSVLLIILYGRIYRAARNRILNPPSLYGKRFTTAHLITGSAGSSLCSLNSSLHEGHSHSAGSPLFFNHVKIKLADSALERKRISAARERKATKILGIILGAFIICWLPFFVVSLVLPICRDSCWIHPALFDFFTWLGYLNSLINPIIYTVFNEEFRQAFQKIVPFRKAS", "test": "Radio-ligand binding assay 5-HT1D", "settings": "10 μM compound; [3H]-5-CT 2 nM; human cortex", "protocol": "as §1, §2"}, "5-HT7 receptor": {"biological_target": "5-HT7 receptor (Homo sapiens, UniProt P34969)", "sequence (P34969 whole entry)": "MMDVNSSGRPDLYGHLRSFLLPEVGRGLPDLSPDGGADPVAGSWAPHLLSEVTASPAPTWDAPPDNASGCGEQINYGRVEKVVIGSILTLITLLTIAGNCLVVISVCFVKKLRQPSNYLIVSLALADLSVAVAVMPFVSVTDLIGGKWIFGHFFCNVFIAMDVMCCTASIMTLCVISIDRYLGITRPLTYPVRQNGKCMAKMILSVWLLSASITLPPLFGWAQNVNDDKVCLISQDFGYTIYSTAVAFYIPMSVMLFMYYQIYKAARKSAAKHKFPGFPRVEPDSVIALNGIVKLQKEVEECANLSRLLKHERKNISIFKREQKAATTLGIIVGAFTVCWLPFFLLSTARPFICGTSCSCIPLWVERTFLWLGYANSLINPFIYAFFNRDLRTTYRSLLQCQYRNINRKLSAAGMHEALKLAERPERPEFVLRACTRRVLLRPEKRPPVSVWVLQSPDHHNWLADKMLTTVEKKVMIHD", "test": "Radio-ligand binding assay 5-HT7", "settings": "10 μM compound; [3H] LSD 2.5 nM; human rec. CHO cells", "protocol": "as §1, §2"}, "5-HT2A receptor": {"biological_target": "5-HT2A receptor (Homo sapiens, UniProt P28223)", "sequence (P28223 whole entry)": "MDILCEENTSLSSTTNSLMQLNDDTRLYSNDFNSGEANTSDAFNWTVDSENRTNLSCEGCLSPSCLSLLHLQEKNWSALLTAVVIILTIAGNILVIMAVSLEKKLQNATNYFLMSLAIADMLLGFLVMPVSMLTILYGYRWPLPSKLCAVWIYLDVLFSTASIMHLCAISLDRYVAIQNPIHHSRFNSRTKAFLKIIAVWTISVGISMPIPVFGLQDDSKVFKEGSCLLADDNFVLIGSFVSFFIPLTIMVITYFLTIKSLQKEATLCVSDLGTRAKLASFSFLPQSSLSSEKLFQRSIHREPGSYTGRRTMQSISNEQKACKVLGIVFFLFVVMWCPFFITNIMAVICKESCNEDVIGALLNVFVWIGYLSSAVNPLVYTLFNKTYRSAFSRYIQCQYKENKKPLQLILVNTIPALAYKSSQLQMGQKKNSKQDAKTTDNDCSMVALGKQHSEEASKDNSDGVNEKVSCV", "test": "Radio-ligand binding assay 5-HT2A", "settings": "10 μM compound; [3H]-Ketanserin 2 nM; human cortex", "protocol": "as §1, §2"}, "5-HT2C receptor [2]": {"biological_target": "T1, 5-HT2C receptor", "test": "Radio-ligand binding assay 5-HT2C", "protocol": "as §1, §2"}, "formalin-induced pain": {"tested_on": "formalin-induced pain", "test": "Formalin test, inflammatory pain model", "assay_type": "in vivo, rat", "settings": "30 mg/kg orally 60 min before formalin", "from_the_text": "Inflammatory pain is associated with tissue damage and the resulting inflammatory process is related to conditions such as arthritis and many autoimmune disease states. The formalin test in rats is a widely used tool when studying inflammatory pain in animals (Dubuisson, D., and Dennis, S. G. (1977), Pain 4:161-174; Wheeler-Aceto, H., et al. (1990), Pain 40:229-238). This model allows the study of two different types of pain that appears in two separate phases: phase 1 which is a direct stimulation of the nerve by the formalin and thus resembles the acute pain, followed by phase 2 which is an inflammatory-reaction induced pain similar to the pain in, e.g., arthritis. […]\nIn accordance with the literature (Sufka K J, et al., Eur J Pain (1998), 2(4):351-8; Maione S, et al., Br. J. Pharmacol. 2007; 150:766-781), nociceptive response was monitored in consecutive 5-min periods for 60 min following formalin injection. In particular, nociceptive responses were recorded by measuring the cumulative time of lifting, licking, shaking and flinching of the injected paw per unit time (5 minutes). The nociceptive response was measured both as every 5 minutes and as total time of the first phase (0-15 min) and the second phase (15-60 min). […]"}}, "data": [{"smiles": "COc1ccc(C=NNC(=N)N)c(Cl)c1OC", "note": "[N-(2-chloro-3,4-dimethoxybenzylideneamino)guanidine]", "values": [{"measurement": "IC50", "setting": "5-HT2C receptor [1]", "value": 16.5, "unit": "µM"}, {"measurement": "inhibition at 10 µM", "setting": "5-HT5A receptor", "value": 54, "unit": "%"}, {"measurement": "inhibition at 10 µM", "setting": "5-HT1A receptor", "value": 17, "unit": "%"}, {"measurement": "inhibition at 10 µM", "setting": "5-HT1D receptor", "value": -5.7, "unit": "%"}, {"measurement": "inhibition at 10 µM", "setting": "5-HT7 receptor", "value": 53, "unit": "%"}, {"measurement": "inhibition at 10 µM", "setting": "5-HT2A receptor", "value": 45, "unit": "%"}, {"measurement": "inhibition at 10 µM", "setting": "5-HT2C receptor [2]", "value": 80, "unit": "%"}, {"measurement": "Ki", "setting": "5-HT2C receptor [2]; 10 different concentrations, Cheng-Prusoff, FIG. 1", "value": 0.88, "unit": "µM"}, {"measurement": "nociceptive response, first phase (0-15 min)", "setting": "formalin-induced pain", "value": "without significantly influencing"}, {"measurement": "nociceptive response, phase 2 (15-60 min), inflammatory pain", "setting": "formalin-induced pain; FIG. 6", "value": "significantly reduced the inflammatory pain response"}]}]}
